Reference: patent US20250361264A1, “PROTEIN MODIFYING REAGENT” (CANON KABUSHIKI KAISHA, priority 2023, published 2025)

What was measured:
silk fibroin powder = target: T1, silk fibroin powder (Bombyx mori, UniProt P05790); assay: Evaluation of adsorptivity of groups containing aromatic rings to proteins having β-sheet structures; format: binding; settings: for Adsorption rate to fibroin (%): 0.02 mM, 0.15 mL methanol solution on 10 mg silk fibroin powder, dried, 0.15 mL water, 5 minutes stirring, supernatant absorbance; for Adsorptivity: class of adsorption rate to fibroin
T1 construct: purchased Sigma-Aldrich
Experimental: After distillation of methanol by air-drying, 0.15 mL of water was added. After stirring for 5 minutes, the supernatant was collected. The adsorption rate of groups containing aromatic rings to fibroin was calculated from the concentration of groups containing aromatic rings in the collected supernatant liquid and the change in concentration by absorbance measurement, the adsorptivity of groups containing aromatic rings to proteins having β-sheet structures was evaluated using the following criteria.
“Evaluation A” and “Evaluation B” indicate the level at which groups containing aromatic rings adsorb strongly to proteins having a β-sheet structure, and “Evaluation C” indicates the low adsorptivity of groups containing aromatic rings.
• A: 90% or more • B: 60% or more but less than 90% • C: Less than 60%

fibroin sheet = target: T2, fibroin sheet (Bombyx mori, UniProt P05790); assay: Color intensity of modified fibroin sheet after peroxidase DAB staining; format: biochemical; settings: fibroin sheet adsorbed from 0.3 mg/mL solution; DAB staining solution 1.5 μL, 5 minutes; ImageJ; average of five sheets
T2 construct: purchased Sigma-Aldrich
Experimental: To 0.18 g of silk fibroin powder (manufactured by Sigma-Aldrich), 3.82 g of hexafluoro--2 propanol (HFIP) was added, and the mixture was stirred at room temperature using a mix rotor. Thereafter, filtration was performed using a filter (Millex-AP, Millipore) to obtain a 4.5 wt % fibroin solution. Fibroin solution (0.1 mL) was used to prepare and collect a sheet of fibroin fibers on an aluminum dish using an electrospinning device (NANON-03, MECC).
After methanol was added to the collected sheet, methanol was removed and dried overnight. The measurement of the weight of the fibroin sheet cut into 20 mm×40 mm size confirmed that it was 1.25 μg/mm^2 fibroin sheet. […]
To the fibroin sheet modified with Compound 1 obtained in Manufacturing Example 2, a staining solution (1.5 μL) of the peroxidase staining DAB kit (Brown Stain) (manufactured by Nacalai Tesque) was added dropwise and allowed to stand for 5 minutes in a wet box. […] After drying the sheet, the sheet was read by a scanner to acquire image data. The obtained image data were measured for color intensity using ImageJ software. Five sheets were made, and the same evaluation was carried out, and the average value of the color intensity (Color Intensity, hereinafter CI value) was calculated. The calculated CI value was 59.8.

Compound | Adsorption rate to fibroin (%) (silk fibroin powder) | Adsorptivity (silk fibroin powder) | CI value (average color intensity) (fibroin sheet)
O=C(O)CCNc1ccc(-c2nc3ccccc3s2)cc1 [Compound 2] | 79 | B (60% or more but less than 90%) | 
O=C(O)CCOc1ccccc1-c1nc2ccccc2s1 [Compound 4] | 71 | B (60% or more but less than 90%) | 
Compound 1: Thioflavin T acid bound to horseradish peroxidase (HRP); one Thioflavin T acid molecule per HRP molecule |  |  | 59.8
HRP: horseradish peroxidase (manufactured by Sigma-Aldrich), unmodified comparison |  |  | 39.5
Thioflavin T acid [reference compound] | 91 | A (90% or more) | 
